Measured values from ChEMBL document CHEMBL5113447, “Synthesis of baicalein derivatives and evaluation of their antiviral activity against arboviruses” (Bioorg Med Chem Lett, 2022).

What was measured:
Chikungunya virus [1] = experiment: Antiviral activity against CHIKV infected in human Huh-7 cells assessed as inhibition of viral infection by measuring EGFP-positive cells measured 24 hrs post infection by fluorescent microscopic analysis; format: functional, organism-based; details: Huh-7, 24 h
West Nile virus [2] = experiment: Antiviral activity against WNV infected in human Huh-7 cells assessed as inhibition of viral infection measured 24 hrs post infection by immunofluorescent assay; format: functional, organism-based; details: Huh-7, 24 h
Zika virus [3] = experiment: Antiviral activity against ZIKV infected in human Huh-7 cells assessed as inhibition of viral infection measured 24 hrs post infection by immunofluorescent assay; format: functional, organism-based; details: Huh-7, 24 h
[4] = Cytotoxicity against human Huh-7 cells assessed as reduction in cell viability incubated for 24 hrs by CCK-8 assay; format: toxicity, cell-based
Chikungunya virus [5] = experiment: Potency index, ratio of baicalein IC50 to test compound IC50 for antiviral activity against CHIKV infected in human Huh-7 cells assessed as inhibition of viral infection by measuring EGFP-positive cells measured 24 hrs post infection by fluorescent microscopic analysis; format: functional
West Nile virus [6] = experiment: Potency index, ratio of baicalein IC50 to test compound IC50 for antiviral activity against WNV infected in human Huh-7 cells assessed as inhibition of viral infection measured 24 hrs post infection by immunofluorescent assay; format: functional
Zika virus [7] = experiment: Potency index, ratio of baicalein IC50 to test compound IC50 for antiviral activity against ZIKV infected in human Huh-7 cells assessed as inhibition of viral infection measured 24 hrs post infection by immunofluorescent assay; format: functional
West Nile virus [8] = experiment: Antiviral activity against WNV infected in human Huh-7 cells assessed as inhibition of viral infection at 20 uM measured 24 hrs post infection by immunofluorescent assay relative to control; format: functional
Zika virus [9] = experiment: Antiviral activity against ZIKV infected in human Huh-7 cells assessed as inhibition of viral infection at 20 uM measured 24 hrs post infection by immunofluorescent assay relative to control; format: functional

| Structure (SMILES) | IC50 (Chikungunya virus [1]) [µM] | IC50 (West Nile virus [2]) [µM] | IC50 (Zika virus [3]) [µM] | CC50 at 24 h [4] [µM] | Ratio IC50 (Chikungunya virus [5]) | Ratio IC50 (West Nile virus [6]) | Ratio IC50 (Zika virus [7]) | inhibition at 20 µM (West Nile virus [8]) [%] | inhibition at 20 µM (Zika virus [9]) [%] |
| --- | --- | --- | --- | --- | --- | --- | --- | --- | --- |
| O=c1cc(-c2ccc(N3CCN(c4cccc(Cl)c4)CC3)cc2)oc2cc(O)c(O)c(O)c12 | 4.3 | 5.1 | 5.7 | > 100 | – | – | – | – | – |
| Oc1c(O)c(O)c2c(=S)cc(-c3ccccc3)oc2c1-c1ccc(C(F)(F)F)cc1 | 2.7 | 2.1 | 3.8 | > 100 | >5 | >6 | >5 | – | – |
| O=c1cc(-c2ccccc2)oc2c(-c3ccc(OC(F)(F)F)cc3)c(O)c(O)c(O)c12 | 5.2 | 6.4 | 8.3 | > 100 | – | – | – | – | – |
| Oc1cc2oc(-c3ccccc3)cc(=S)c2c(O)c1O | 7.6 | – | – | > 100 | – | – | – | < 50 | < 50 |
| Cc1ccc(-c2c(O)c(O)c(O)c3c(=O)cc(-c4ccccc4)oc23)cc1 | 7.9 | – | – | > 100 | – | – | – | < 50 | < 50 |
| O=c1cc(-c2ccccc2)oc2c(-c3ccc(F)cc3)c(O)c(O)c(O)c12 | 4.2 | 3.1 | 2.5 | > 100 | – | – | >5 | – | – |
| O=c1cc(-c2ccc(Nc3ccc(F)cc3)cc2)oc2cc(O)c(O)c(O)c12 | 4.8 | 4.5 | 6.9 | > 100 | – | – | – | – | – |
| O=c1cc(-c2ccccc2)oc2c(-c3ccccc3)c(O)c(O)c(O)c12 | 5.8 | 3.1 | 5.8 | 86.3 | – | – | – | – | – |
| COc1c(OC)c(OC)c2c(=O)cc(-c3ccccc3)oc2c1-c1ccc(OC(F)(F)F)cc1 | 17.8 | – | – | > 100 | – | – | – | < 50 | < 50 |
| O=c1cc(-c2ccccc2)oc2c(-c3cccc(F)c3)c(O)c(O)c(O)c12 | 4.3 | 2.9 | 3.5 | > 100 | – | – | >5 | – | – |
| COc1cc2oc(-c3ccc(Nc4ccc(F)cc4)cc3)cc(=O)c2c(OC)c1OC | 9.7 | – | – | 77.6 | – | – | – | < 50 | < 50 |
| O=c1cc(-c2ccccc2)oc2c(-c3cc(F)cc(F)c3)c(O)c(O)c(O)c12 | 8.6 | – | – | > 100 | – | – | – | < 50 | < 50 |
| Cc1cccc(-c2c(O)c(O)c(O)c3c(=O)cc(-c4ccccc4)oc23)c1 | 8.7 | – | – | > 100 | – | – | – | < 50 | < 50 |
| O=c1cc(-c2ccc(N3CCN(c4ccc(O)cc4)CC3)cc2)oc2cc(O)c(O)c(O)c12 | 5.9 | 6.6 | 6.9 | > 100 | – | – | – | – | – |
| CN1CCN(c2ccc(-c3cc(=O)c4c(O)c(O)c(O)cc4o3)cc2)CC1 | 8.9 | – | – | > 100 | – | – | – | < 50 | < 50 |
| Oc1c(O)c(O)c2c(=S)cc(-c3ccccc3)oc2c1-c1ccc(F)cc1 | 4.7 | 6.2 | 7.7 | > 100 | – | – | – | – | – |
| O=c1cc(-c2ccc(Nc3ccc(Br)cc3)cc2)oc2cc(O)c(O)c(O)c12 | 5.2 | 4.1 | 6.7 | > 100 | – | – | – | – | – |
| COc1cc2oc(-c3ccccc3)cc(=S)c2c(OC)c1OC | 9.7 | – | – | > 100 | – | – | – | < 50 | < 50 |
| Oc1c(O)c(O)c2c(=S)cc(-c3ccccc3)oc2c1-c1cccc(F)c1 | 9.7 | – | – | > 100 | – | – | – | < 50 | < 50 |
| O=c1cc(-c2ccc(Nc3ccc(Cl)cc3)cc2)oc2cc(O)c(O)c(O)c12 | 3.4 | 2.4 | 1.9 | > 100 | >5 | >6 | >5 | – | – |
| COc1cc2oc(-c3ccc(N4CCN(C)CC4)cc3)cc(=O)c2c(OC)c1OC | 11.5 | – | – | > 100 | – | – | – | < 50 | < 50 |
| O=c1cc(-c2ccccc2)oc2cc(O)c(O)c(O)c12 [BAICALEIN] | 16.9 | 14.5 | 19.6 | > 100 | – | – | – | – | – |
